The source of these data is publication PMC12320831, “Synthesis and Biological Evaluation of New Chalcogen Semicarbazone (S, Se) and Their Azole Derivatives against Chagas Disease” (Journal of Medicinal Chemistry, 2024).

Counter-ions that a name gives are not always drawn. Like-named read-outs stand apart in the source and are kept apart here.

The nature of data set [1]: Host cell cytotoxicity (C2C12 viability). The data set is classed as cell-based, Mouse. To be noted: mouse; for viability at 48 h, 10 µM: < 50% viability considered cytotoxic; for CC50 at 48 h: viability calculated at 10 μM. How it is done: Antiparasitic activity and cytotoxicity of compounds were determined as described before (da Silva et al., Boudreau et al.). Mouse myoblasts cell line C2C12 (ATCCCRL-1772), were maintained in high glucose (4.5 g/L glucose) Dulbecco’s modified Eagle’s medium (DMEM Gibco), supplemented with 1% penicillin–streptomycin 10,000 U/mL (Gibco) and 5% fetal bovine serum (FBS, Sigma-Aldrich) at 37 °C with 5% CO2. parasites (CAI/72 strain, DTU TcI) were maintained by weekly coinfection with C2C12 cells. For all activity assays, C2C12 cells were infected at a 10:1 parasite-to-cell ratio with culture-derived trypomastigotes, which were harvested from the supernatant of infected C2C12 cells. After adding compounds to 384-well black clear-bottom plates (Greiner cat. no. 781091), trypomastigotes (7000 parasites/well) and C2C12 cells (700 cells/well) were seeded in a total volume of 50 μL of DMEM per well in the 384-well plates. Compounds were first tested at 10 μM. […] After 48 h at 37 °C and 5% CO2, plates were fixed with 4% formaldehyde solution for at least 1 h, washed with 1× PBS, and stained with 5 μg/mL of 4′,6-diamidino-2-phenylindole (DAPI) for at least 1 h prior to reading. Plates were imaged with the automated ImageXpress MicroXL microscope (Molecular Devices) and analyzed by MetaXpress software (Molecular Devices) using a custom module optimized for this assay. Infection levels (parasites per host cell) were normalized to the positive control (40 μM BNZ) and negative control (DMSO). Antiparasitic activity (EC50) ± standard deviation (SD) and host cell cytotoxicity (C2C12 viability) values were determined from the DRC using Prism software (GraphPad Software, La Jolla, CA). Every assay has three biological replicates, each in triplicates (n = 9 data points).

The subject of data set [2] is T. cruzi CAI/72 strain. As to the kind of experiment: Antiparasitic activity in C2C12 cells infected with T. cruzi CAI/72 (image-based assay). In kind it is cell-based. As to conditions: Trypanosoma cruzi; for EC50: mean of three experiments in triplicate (n = 9) ± SD. How it is done:
Antiparasitic activity and cytotoxicity of compounds were determined as described before (da Silva et al., Boudreau et al.). Mouse myoblasts cell line C2C12 (ATCCCRL-1772), were maintained in high glucose (4.5 g/L glucose) Dulbecco’s modified Eagle’s medium (DMEM Gibco), supplemented with 1% penicillin–streptomycin 10,000 U/mL (Gibco) and 5% fetal bovine serum (FBS, Sigma-Aldrich) at 37 °C with 5% CO2. parasites (CAI/72 strain, DTU TcI) were maintained by weekly coinfection with C2C12 cells. For all activity assays, C2C12 cells were infected at a 10:1 parasite-to-cell ratio with culture-derived trypomastigotes, which were harvested from the supernatant of infected C2C12 cells. After adding compounds to 384-well black clear-bottom plates (Greiner cat. no. 781091), trypomastigotes (7000 parasites/well) and C2C12 cells (700 cells/well) were seeded in a total volume of 50 μL of DMEM per well in the 384-well plates. Compounds were first tested at 10 μM. […] Plates were imaged with the automated ImageXpress MicroXL microscope (Molecular Devices) and analyzed by MetaXpress software (Molecular Devices) using a custom module optimized for this assay. Infection levels (parasites per host cell) were normalized to the positive control (40 μM BNZ) and negative control (DMSO). Antiparasitic activity (EC50) ± standard deviation (SD) and host cell cytotoxicity (C2C12 viability) values were determined from the DRC using Prism software (GraphPad Software, La Jolla, CA). Every assay has three biological replicates, each in triplicates (n = 9 data points).

For data set [3], the target named is T1, recombinant Cz (cruzain) (Trypanosoma cruzi, UniProt P25779).
T1 construct: Cz was expressed and purified as described in da Silva et al; made in house
T1 sequence (P25779 123-337 limits assumed): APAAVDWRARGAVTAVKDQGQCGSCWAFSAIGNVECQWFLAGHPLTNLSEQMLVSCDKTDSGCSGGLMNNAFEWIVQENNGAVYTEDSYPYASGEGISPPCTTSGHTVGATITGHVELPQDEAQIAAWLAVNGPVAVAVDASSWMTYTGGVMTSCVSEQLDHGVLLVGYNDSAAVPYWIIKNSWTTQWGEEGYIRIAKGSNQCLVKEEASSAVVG
As to the kind of experiment: biochemical. As to conditions: read-out: Cz inhibition (%), 10 µM. Here is the method: The screening assay was performed using 1 nM of Cz diluted in 0.1 M sodium acetate pH 5.5, 1 mM dithiothreitol (DTT), and 0.01% Triton X-100. Cz was expressed and purified as described in da Silva et al. The reaction starts after 10 min incubating the enzyme with the compounds (10 μM), when adding 2.5 μM of the substrate Z-FR-AMC final concentration (Z-Phe-Arg-amidomethylcoumarin, Sigma-Aldrich, C9521) diluted in the same assay buffer (final volume of 30 μL). The experiment was performed for 10 min. […] The DRC was performed with at least nine different concentrations of the inhibitors, diluted by 2-fold serial dilution, ranging from […] to 10 μM.
All experiments were accomplished in a 384-well black microplate, using a Synergy HTX (Biotek) plate reader at 25 °C with absorption/emission wavelengths of 360/460 nm. All assays were performed in triplicate wells and DMSO was used as a vehicle control. Enzymatic activity was measured and normalized to DMSO controls, and the inhibitor E-64 (10 μM) was used as a positive control for all assays. All experiments were performed in triplicates, with at least two independent assays (n = 6 data points). IC50 values were determined through nonlinear regression. Obtained data were treated and analyzed using GraphPad Prism 9.0 (GraphPad Software, La Jolla, California).

The mark [4] stands for this setting: C2C12 myoblast cells infected with trypomastigotes.
Where [5] appears, read: 10 µM, C2C12 infected cells, read-out: Anti-Tc CAI/72 activity (%).
Where [6] appears, read: C2C12, read-out: Anti-Tc CAI/72 activity (%).

For orientation: viability means a read-out of living cells in per cent, often relative to untreated cells. High values mean better survival, low ones a greater loss of cells. As for `C/C(=N\NC(N)=S)c1ccc(Br)cc1` [Compound S1f, (E)-2-(1-(4-Bromophenyl)ethylidene)hydrazine-1-carbothioamide], in data set [1] (setting [4]), the viability at 48 h, 10 µM is greater than 100%. In addition, the inhibition at 10 µM amounted to 45.4% in data set [2] (setting [5]) and 97.1% in data set [3].

In turn, `C/C(=N\Nc1nc(C)cs1)c1cc2ccccc2o1` [Compound S2p, (E)-2-(2-(1-(Benzofuran-2-yl)ethylidene)hydrazineyl)-4-methylthiazole Hydrochloride] returned a viability at 48 h, 10 µM in data set [1] (setting [4]) greater than 100%. The inhibition at 10 µM in data set [2] (setting [5]) came to 31.4%; in data set [3], 74.3%.

In the case of `C/C(=N\Nc1nc(C)cs1)C12CC3CC(CC(C3)C1)C2` [Compound S2q, 2-(2-((E)-1-((3s)-Adamantan-1-yl)ethylidene)hydrazineyl)-4-methylthiazole Hydrochloride], the viability at 48 h, 10 µM in data set [1] (setting [4]) is greater than 100%. The inhibition at 10 µM in data set [2] (setting [5]) amounted to 40.5%; in data set [3] it was 30.5%.

`C/C(=N\Nc1nc(C)cs1)c1ccsc1` [Compound S2l, (E)-4-Methyl-2-(2-(1-(thiophen-3-yl)ethylidene)hydrazineyl)thiazole Hydrochloride] came in with a viability at 48 h, 10 µM in data set [1] (setting [4]) greater than 100%. For the same compound, the values for the inhibition at 10 µM in data set [2] (setting [5]) and in data set [3] were 19.5% and 31.6%, respectively.

In data set [1] (setting [4]), `COc1ccc(/C(C)=N/NC(N)=S)cc1` [Compound S1b, (E)-2-(1-(4-Methoxyphenyl)ethylidene)hydrazine-1-carbothioamide] gave a viability at 48 h, 10 µM greater than 100%. In addition, the inhibition at 10 µM in data set [2] (setting [5]) came to 23.2%; in data set [3] it was 87.1%.

Consider `C/C(=N\NC(N)=[Se])c1csc2ccccc12` [Se1o, (E)-2-(1-(Benzo[b]thiophen-3-yl)ethylidene)hydrazine-1-carboselenoamide], for which, in data set [1], the viability at 48 h, 10 µM is 31.4%. Moreover, the inhibition at 10 µM in data set [2] (setting [6]) was 4.32%; in data set [3], 93.7%.

Turning to `C/C(=N\Nc1nc(C)c[se]1)c1ccc(Br)cc1` [Se2f, (E)-2-(2-(1-(4-Bromophenyl)ethylidene)hydrazineyl)-4-methyl-1,3-selenazole Hydrochloride], the viability at 48 h, 10 µM in data set [1] was 87.7%. Besides, the inhibition at 10 µM amounted to 18.3% in data set [2] (setting [6]) and 98.6% in data set [3].

In data set [1] (setting [4]), `C/C(=N\Nc1nc(C)cs1)c1ccc(C#N)cc1` [Compound S2e, (E)-4-(1-(2-(4-Methylthiazol-2-yl)hydrazineylidene)ethyl)benzonitrile Hydrochloride] came in with a viability at 48 h, 10 µM greater than 100%. For the same compound, the figures for the inhibition at 10 µM in data set [2] (setting [5]) and in data set [3] were 22.4% and 89.8%, respectively.

Consider `C/C(=N\Nc1nc(C)cs1)c1ccc(F)c(F)c1` [Compound S2j, (E)-2-(2-(1-(3,4-Difluorophenyl)ethylidene)hydrazineyl)-4-methylthiazole Hydrochloride], for which, in data set [1] (setting [4]), the viability at 48 h, 10 µM was greater than 100%. In addition, the inhibition at 10 µM in data set [2] (setting [5]) came out at 28.3%; in data set [3], 79.4%.

For the compound `C/C(=N\NC(N)=[Se])c1ccc(F)c(F)c1` [Se1j, (E)-2-(1-(3,4-Difluorophenyl)ethylidene)hydrazine-1-carboselenoamide], the viability at 48 h, 10 µM in data set [1] was found to be 27.7%. Moreover, the inhibition at 10 µM in data set [3] is 102%.

Compound `C/C(=N\Nc1nc(C)cs1)c1ccc(Br)cc1` [Compound S2f, (E)-2-(2-(1-(4-Bromophenyl)ethylidene)hydrazineyl)-4-methylthiazole hydrochloride] registered a viability at 48 h, 10 µM in data set [1] (setting [4]) greater than 100%. Besides, the inhibition at 10 µM in data set [2] (setting [5]) was 1.1%; in data set [3] it was 53%.

On to `COc1ccc(/C(C)=N/Nc2nc(C)c[se]2)cc1` [Se2b, (E)-2-(2-(1-(4-Methoxyphenyl)ethylidene)hydrazineyl)-4-methyl-1,3-selenazole Hydrochloride], for which, in data set [1], the viability at 48 h, 10 µM is 94%. The figures for the inhibition at 10 µM in data set [2] (setting [6]) and in data set [3] were 12.1% and 21.6%, respectively.

In data set [1] (setting [4]), `C/C(=N\Nc1nc(C)cs1)c1csc2ccccc12` [Compound S2o, (E)-2-(2-(1-(Benzo[b]thiophen-3-yl)ethylidene)hydrazineyl)-4-methylthiazole Hydrochloride] registered a viability at 48 h, 10 µM greater than 100%. Besides, the values for the inhibition at 10 µM in data set [2] (setting [5]) and in data set [3] were 45.7% and 27.9%, respectively.

Usually CC50 stands for the concentration giving 50% cytotoxicity. On to `O=C(Cn1ccnc1[N+](=O)[O-])NCc1ccccc1` [BZ, Benznidazole, reference compound], for which, in data set [1] (setting [4]), the viability at 48 h, 10 µM is greater than 100% and the CC50 at 48 h was greater than 10 µM. For the same compound, the inhibition at 40 µM in data set [2] (40 µM (BZ), C2C12 infected cells, read-out: Anti-Tc CAI/72 activity (%)) was found to be 81.7%. Moreover, the EC50 in data set [2] (intracellular amastigotes in C2C12 cells, 48 h, read-out: EC50 Tc CAI/72) was determined as 5.79 ± 1.2 µM.

For `C/C(=N\Nc1nc(C)c[se]1)C12CC3CC(CC(C3)C1)C2` [Se2q, 2-(2-((E)-1-((3s)-Adamantan-1-yl)ethylidene)hydrazineyl)-4-methyl-1,3-selenazole], the viability at 48 h, 10 µM in data set [1] was greater than 100%. Also, in data set [2] (setting [6]), the inhibition at 10 µM came out at 40.6%.

The compound `C/C(=N\Nc1nc(C)cs1)c1ccc(C(F)(F)F)cc1` [Compound S2d, (E)-4-Methyl-2-(2-(1-(4-(trifluoromethyl)phenyl)ethylidene)hydrazineyl)thiazole Hydrochloride] registered a viability at 48 h, 10 µM in data set [1] (setting [4]) greater than 100%. In addition, the inhibition at 10 µM in data set [3] worked out at 41.6%.

Turning to `C/C(=N\Nc1nc(C)c[se]1)c1ccsc1` [Se2l, (E)-4-Methyl-2-(2-(1-(thiophen-3-yl)ethylidene)hydrazineyl)-1,3-selenazole Hydrochloride], in data set [1], the viability at 48 h, 10 µM was greater than 100% and the CC50 at 48 h was greater than 10 µM. Also, the EC50 in data set [2] (C2C12, 48 h, read-out: EC50 Tc CAI/72, intracellular amastigotes in C2C12 cells, 48 h) was 3.73 µM. Moreover, the inhibition at 10 µM in data set [2] (setting [6]) turned out to be 50.4%.

In data set [1], `COc1ccc(/C(C)=N/NC(N)=[Se])c(OC)c1` [Se1k, (E,Z)-2-(1-(2,4-Dimethoxyphenyl)ethylidene)hydrazine-1-carboselenoamide] came in with a viability at 48 h, 10 µM of 43.7%. Moreover, the inhibition at 10 µM in data set [3] was 92.5%.

Regarding `COc1ccc(/C(C)=N/Nc2nc(C)c[se]2)c(OC)c1` [Se2k, (E,Z)-2-(2-(1-(2,4-Dimethoxyphenyl)ethylidene)hydrazineyl)-4-methyl-1,3-selenazole Hydrochloride], the viability at 48 h, 10 µM in data set [1] was greater than 100%. The inhibition at 10 µM in data set [2] (setting [6]) was found to be 38.1%.

Compound `C/C(=N\Nc1nc(C)cs1)c1ccc([N+](=O)[O-])cc1` [Compound S2c, (E)-4-Methyl-2-(2-(1-(4-nitrophenyl)ethylidene)hydrazineyl)thiazole Hydrochloride] registered a viability at 48 h, 10 µM in data set [1] (setting [4]) of 99.2%. Moreover, the inhibition at 10 µM in data set [3] amounted to 96.7%.
